Assay results reported in ChEMBL document CHEMBL1156599, “Nordihydroguaiaretic acid autoxidation produces a schisandrin-like dibenzocyclooctadiene lignan” (J Nat Prod, 2008).

Assay: Stability assessed as half life at pH 7.4
Type: physicochemical
Conditions: buffer

half-life: 3 h
Compound: CC(Cc1ccc(O)c(O)c1)C(C)Cc1ccc(O)c(O)c1 (stereo unspecified) [NORDIHYDROGUAIARETIC ACID]
